In assay [1] the target is Anti-cotinine antibody (SEQ ID NO: 11 / SEQ ID NO: 12, rabbit variable region with human IgG1 Fc domain). The assay can be described thus: Binding of anti-cotinine antibody to ARM compounds by SPR, Biacore T200, 37° C. (Example 202). To be noted: pH 7.4, rabbit variable region/human IgG1 Fc antibody captured on protein A. In short, it runs like this:
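Antibody captured on protein A chip. Compounds injected (3-fold, 5-point, top 200 nM) at 100 μL/min with 200 s association and 2000 s dissociation, at 37° C. in HEPES pH 7.4 buffer with 1% DMSO. Double-referenced data fit to 1:1 kinetics. Kd = koff/kon, reported as pKd, averaged over runs.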
Background: SPR reads the build-up and loss of mass on a sensor chip optically.

Assay [2] concerns the target human alpha1 nicotinic acetylcholine (nACh) receptor (Homo sapiens, UniProt P02708+Q07001). The assay can be described thus: Nicotinic acetylcholine receptor antagonism assay, IONFlux automated patch clamp (Example 203). The assay is classed as cell-based. Conditions: for Emax at 10 µM: maximum percentage antagonism at maximum concentration tested 10 μM; for Emax at 10 µM / Emax at 100 µM: read-out: Maximum Response (%); for IC50: nAChR antagonism, ACh stimulated, patch clamp; for Emax at 100 µM: maximum percentage antagonism at maximum concentration tested 100 μM. In a few lines:
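Human α1 nAChR-expressing cells were preincubated with compound (top 10 μM or 100 μM), then stimulated with 10 mM ACh; peak currents were recorded by IONFlux automated patch clamp. Percent inhibition versus ACh-alone control was vehicle- and rundown-corrected, then fitted to give IC50, with maximal antagonism at the top concentration; recordings with control current <500 pA were excluded.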

Assay [3] addresses T1, CHOK1 cells engineered to overexpress human CCR2 (Homo sapiens, UniProt P41597).
T1 construct: expressed in transfected cells; host or cells: CHOK1 cells
The assay can be described thus: Antibody dependent cellular cytotoxicity (ADCC) reporter assay (Example 199). The assay is classed as cell-based. Conditions: with anti-cotinine antibody SEQ ID NO: 11/12, CHOK1-human CCR2 target cells, Jurkat FcγRIIIa NFAT-luciferase reporter cells, 12-18 hours; for EC50: read-out: ADCC Reporter Assay pEC50 (converted). In short, it runs like this:
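CHOK1-hCCR2 target cells are co-incubated for 12–18 h with Jurkat FcγRIIIa/NFAT-luciferase reporter cells, ARM compound (1 pM–10 μM) and anti-cotinine antibody with a DE-mutant human IgG1 Fc (0.01–200 μg/mL). Luminescence is expressed as signal:background against no-compound wells; EC50 comes from nonlinear fit and is reported as pEC50, averaged across runs.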
For orientation: A reporter such as luciferase makes a cellular process visible.

Results on 13 compounds are retold here after US20250136722A1, “CYTOTOXICITY TARGETING CHIMERAS” (GLAXOSMITHKLINE INTELLECTUAL PROPERTY DEVELOPMENT LIMITED, priority 2021, published 2025).

Each structure is given as a SMILES string. Where “and” joins values, the source holds several entries; their conditions need not be identical. Equal entries are not always repeated.

Chain of human alpha1 nicotinic acetylcholine (nACh) receptor (P02708 21-457): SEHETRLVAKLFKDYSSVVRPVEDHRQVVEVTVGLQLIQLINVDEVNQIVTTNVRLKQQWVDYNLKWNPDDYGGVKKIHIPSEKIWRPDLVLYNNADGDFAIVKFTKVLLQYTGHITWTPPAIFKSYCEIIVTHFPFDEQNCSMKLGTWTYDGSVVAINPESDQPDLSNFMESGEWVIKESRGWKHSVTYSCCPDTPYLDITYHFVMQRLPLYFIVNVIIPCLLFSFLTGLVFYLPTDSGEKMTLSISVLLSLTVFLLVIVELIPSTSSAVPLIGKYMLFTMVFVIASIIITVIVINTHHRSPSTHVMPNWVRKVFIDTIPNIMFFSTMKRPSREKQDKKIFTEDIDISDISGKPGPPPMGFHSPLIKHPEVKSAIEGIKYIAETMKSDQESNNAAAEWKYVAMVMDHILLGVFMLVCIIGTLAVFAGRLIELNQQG
Chain of human alpha1 nicotinic acetylcholine (nACh) receptor (P11230 24-501 partner): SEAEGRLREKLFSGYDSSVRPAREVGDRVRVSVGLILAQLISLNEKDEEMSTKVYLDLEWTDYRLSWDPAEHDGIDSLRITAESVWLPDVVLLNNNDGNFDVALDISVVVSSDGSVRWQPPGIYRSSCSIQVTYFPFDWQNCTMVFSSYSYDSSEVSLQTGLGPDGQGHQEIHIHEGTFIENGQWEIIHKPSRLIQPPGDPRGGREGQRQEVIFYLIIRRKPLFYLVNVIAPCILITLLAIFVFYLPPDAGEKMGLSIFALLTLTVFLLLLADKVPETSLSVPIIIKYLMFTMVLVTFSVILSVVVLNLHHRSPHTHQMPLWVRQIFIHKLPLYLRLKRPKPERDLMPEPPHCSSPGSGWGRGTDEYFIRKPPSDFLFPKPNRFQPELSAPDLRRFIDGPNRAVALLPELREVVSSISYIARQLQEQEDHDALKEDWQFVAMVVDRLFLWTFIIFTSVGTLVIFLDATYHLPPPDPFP
Chain of human alpha1 nicotinic acetylcholine (nACh) receptor (Q07001 22-517): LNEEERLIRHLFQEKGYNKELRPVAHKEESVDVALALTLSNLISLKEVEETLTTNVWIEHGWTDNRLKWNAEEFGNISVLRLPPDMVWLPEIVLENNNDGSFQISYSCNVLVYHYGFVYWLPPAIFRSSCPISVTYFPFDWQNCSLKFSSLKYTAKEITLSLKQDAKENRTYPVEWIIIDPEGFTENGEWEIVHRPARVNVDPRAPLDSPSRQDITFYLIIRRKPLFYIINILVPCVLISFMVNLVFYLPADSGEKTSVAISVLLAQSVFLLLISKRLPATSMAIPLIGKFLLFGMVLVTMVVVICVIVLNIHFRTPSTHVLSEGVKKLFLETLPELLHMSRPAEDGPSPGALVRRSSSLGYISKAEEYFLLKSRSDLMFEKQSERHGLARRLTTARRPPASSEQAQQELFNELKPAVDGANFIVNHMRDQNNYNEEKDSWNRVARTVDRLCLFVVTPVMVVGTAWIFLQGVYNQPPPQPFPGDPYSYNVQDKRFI

With `CC(C)N(C)[C@@H]1CC[C@H](N2CC[C@H](Nc3ncnc4ccc(C(F)(F)F)cc34)C2=O)[C@H](NC(=O)CCCN2CCC3(CCN(CCCNC(=O)[C@H]4CC(=O)N(C)[C@@H]4c4cccnc4)CC3)CC2)C1` [Example 191, (2S,3S)-N-(3-(9-(4-(((1R,2S,5R)-5-(Isopropyl(methyl)amino)-2-((S)-2-oxo-3-((6-(trifluoromethyl)quinazolin-4-yl)amino)pyrrolidin-1-yl)cyclohexyl)amino)-4-oxobutyl)-3,9-diazaspiro[5.5]undecan-3-yl)propyl)-1-methyl-5-oxo-2-(pyridin-3-yl)pyrrolidine-3-carboxamide], in assay [1], the “pKd of Antibody for ARM Compound of Formula (I)” value (from here on “pKd of Antibody”) is given as 9.68. In assay [2], the Emax at 10 µM came out at 74% and the IC50 worked out at 2.95 µM. Also, the EC50 in assay [3] is 0.424 nM.
Turning to `CC(C)N(C)[C@@H]1CC[C@H](N2CC[C@H](Nc3ncnc4ccc(C(F)(F)F)cc34)C2=O)[C@H](NC(=O)[C@H]2CC[C@@H](NC(=O)COCCNC(=O)COCCNC(=O)[C@H]3CC(=O)N(C)[C@@H]3c3cccnc3)CC2)C1` [Example 99], the “pKd of Antibody” value in assay [1] turned out to be 9.062. In assay [2], the Emax at 100 µM is 71.1% and it took 33.1 µM to reach half-maximal inhibition (IC50). In addition, in assay [3], the EC50 is 1.99 nM.
With `CC(C)N(C)[C@@H]1CC[C@H](N2CC[C@H](Nc3ncnc4ccc(C(F)(F)F)cc34)C2=O)[C@H](NC(=O)COCCNC(=O)COCCNC(=O)COCCNC(=O)[C@H]2CC(=O)N(C)[C@@H]2c2cccnc2)C1` [Example 111, (2S,3S)-N-(17-(((1R,2S,5R)-5-(Isopropyl(methyl)amino)-2-((S)-2-oxo-3-((6-(trifluoromethyl)quinazolin-4-yl)amino)pyrrolidin-1-yl)cyclohexyl)amino)-5,11,17-trioxo-3,9,15-trioxa-6,12-diazaheptadecyl)-1-methyl-5-oxo-2-(pyridin-3-yl)pyrrolidine-3-carboxamide], the “pKd of Antibody” value in assay [1] amounted to 9.0855. Further, in assay [2], the Emax at 100 µM was found to be 67.6% and inhibition was half-maximal at 52.9 µM (IC50). The EC50 in assay [3] was 6.31 nM.
For `CC(C)N(C)[C@@H]1CC[C@H](N2CC[C@H](Nc3ncnc4ccc(C(F)(F)F)cc34)C2=O)[C@H](NC(=O)CCOCCNC(=O)[C@H]2CC[C@@H](NC(=O)COCCNC(=O)[C@H]3CC(=O)N(C)[C@@H]3c3cccnc3)CC2)C1` [Example 107, (2S,3S)-N-(2-(2-(((1S,4R)-4-((2-(3-(((1R,2S,5R)-5-(Isopropyl(methyl)amino)-2-((S)-2-oxo-3-((6-(trifluoromethyl)quinazolin-4-yl)amino)pyrrolidin-1-yl)cyclohexyl)amino)-3-oxopropoxy)ethyl)carbamoyl)cyclohexyl)amino)-2-oxoethoxy)ethyl)-1-methyl-5-oxo-2-(pyridin-3-yl)pyrrolidine-3-carboxamide], the “pKd of Antibody” value in assay [1] worked out at 9.161. Moreover, in assay [2], the Emax at 10 µM stood at 12.2% and the IC50 was over 10 µM. Moreover, the EC50 in assay [3] is 0.158 nM.
`CC(C)N(C)[C@@H]1CC[C@H](N2CC[C@H](Nc3ncnc4ccc(C(F)(F)F)cc34)C2=O)[C@H](NC(=O)C2CCC(NC(=O)CCOCCNC(=O)CCOCCNC(=O)[C@H]3CC(=O)N(C)[C@@H]3c3cccnc3)CC2)C1` (stereo partly shown) [Example 48]: the “pKd of Antibody” value in assay [1] is 8.975. Also, in assay [2], the Emax at 100 µM was 77% and the IC50 amounted to 31.8 µM. For the same compound, in assay [3], the “ADCC Reporter Assay pEC50” value is 9.159 and 9.168.
`CCN1C(=O)C[C@H](C(=O)NCCOCCOCCOCCC(=O)N[C@H]2CC[C@@H](C(=O)N[C@@H]3C[C@H](NC(C)(C)C)CC[C@@H]3N3CC[C@H](Nc4ncnc5ccc(C(F)(F)F)cc45)C3=O)CC2)[C@H]1c1cccnc1` [Example 35]: the “pKd of Antibody” value in assay [1] is 9.785. In assay [2], the Emax at 100 µM worked out at 52.3% and the IC50 was determined as 89.2 µM. The EC50 in assay [3] is 2.51 nM.
In the case of `CC(C)N(C)[C@@H]1CC[C@H](N2CC[C@H](Nc3ncnc4ccc(C(F)(F)F)cc34)C2=O)[C@H](NC(=O)CNC(=O)[C@H]2CC[C@@H](NC(=O)CCOCCOCCNC(=O)[C@H]3CC(=O)N(C)[C@@H]3c3cccnc3)CC2)C1` [Example 137, (2S,3S)-N-(2-(2-(3-(((1S,4s)-4-((2-(((1R,2S,5R)-5-(Isopropyl(methyl)amino)-2-((S)-2-oxo-3-((6-(trifluoromethyl)quinazolin-4-yl)amino)pyrrolidin-1-yl)cyclohexyl)amino)-2-oxoethyl)carbamoyl)cyclohexyl)amino)-3-oxopropoxy)ethoxy)ethyl)-1-methyl-5-oxo-2-(pyridin-3-yl)pyrrpolidine-3-carboxamide], in assay [1], the “pKd of Antibody” value is reported as 9.336. Further, in assay [2], the Emax at 100 µM worked out at 62% and the concentration for half-maximal inhibition (IC50) was 70 µM. For the same compound, in assay [3], the EC50 is 1.67 nM.
Consider `CC(C)N(C)[C@@H]1CC[C@H](N2CC[C@H](Nc3ncnc4ccc(C(F)(F)F)cc34)C2=O)[C@H](NC(=O)CCOCCNC(=O)CCOCCNC(=O)COCCNC(=O)[C@H]2CC(=O)N(C)[C@@H]2c2cccnc2)C1` [Example 105], for which the “pKd of Antibody” value in assay [1] is 9.0705. In assay [2], the Emax at 100 µM was 75.7% and inhibition was half-maximal at 38.9 µM (IC50). In assay [3], the EC50 was 0.794 nM.
For the compound `CC(C)N(C)[C@@H]1CC[C@H](N2CC[C@H](Nc3ncnc4ccc(C(F)(F)F)cc34)C2=O)[C@H](NC(=O)[C@H]2C[C@@H](NC(=O)CCOCCOCCOCCNC(=O)[C@H]3CC(=O)N(C)[C@@H]3c3cccnc3)C2)C1` [Example 24], the “pKd of Antibody” value in assay [1] came out at 9.4425. Further, in assay [2], the Emax at 100 µM came to 59.5% and the IC50 came out at 85.3 µM. Besides, in assay [3], the EC50 is 1.46 nM and 0.358 nM.
As for `CC(C)N(C)[C@@H]1CC[C@H](N2CC[C@H](Nc3ncnc4ccc(C(F)(F)F)cc34)C2=O)[C@H](NC(=O)CCOCCC(=O)N[C@H]2C[C@@H](C(=O)NCCOCCNC(=O)[C@H]3CC(=O)N(C)[C@@H]3c3cccnc3)C2)C1` [Example 186, (2S,3S)-N-(2-(2-((1S,3R)-3-(3-(3-(((1R,2S,5R)-5-(Isopropyl(methyl)amino)-2-((S)-2-oxo-3-((6-(trifluoromethyl)quinazolin-4-yl)amino)pyrrolidin-1-yl)cyclohexyl)amino)-3-oxopropoxy)propanamido)cyclobutane-1-carboxamido)ethoxy)ethyl)-1-methyl-5-oxo-2-(pyridin-3-yl)pyrrolidine-3-carboxamide], the “pKd of Antibody” value in assay [1] came to 9.1435. In assay [2], the Emax at 100 µM came to 55.2% and inhibition was half-maximal at 31.8 µM (IC50). Besides, the EC50 in assay [3] was 0.151 nM.
With `CC(C)N(C)[C@@H]1CC[C@H](N2CC[C@H](Nc3ncnc4ccc(C(F)(F)F)cc34)C2=O)[C@H](NC(=O)CCOCCOCCNC(=O)CCOCCOCCNC(=O)[C@H]2CC(=O)N(C)[C@@H]2c2cccnc2)C1` [Example 76], the “pKd of Antibody” value in assay [1] was determined as 9.1155. Moreover, in assay [2], the Emax at 100 µM was 67.7% and the IC50 was 32.4 µM. The EC50 in assay [3] was 2.51 nM.
Take `CC(C)N(C)[C@@H]1CC[C@H](N2CC[C@H](Nc3ncnc4ccc(C(F)(F)F)cc34)C2=O)[C@H](NC(=O)COCCOCCNC(=O)CCOCCOCCNC(=O)[C@H]2CC(=O)N(C)[C@@H]2c2cccnc2)C1` [Example 77]: in assay [1], the “pKd of Antibody” value is 9.152. Besides, in assay [2], the Emax at 10 µM is 19.6% and the IC50 was over 10 µM. For the same compound, the EC50 in assay [3] was 5.52 nM.
Consider `CC(C)N(C)[C@@H]1CC[C@H](N2CC[C@H](Nc3ncnc4ccc(C(F)(F)F)cc34)C2=O)[C@H](NC(=O)CCOCCNC(=O)COCCNC(=O)COCCNC(=O)[C@H]2CC(=O)N(C)[C@@H]2c2cccnc2)C1` [Example 102, (2S,3S)-N-(18-(((1R,2S,5R)-5-(Isopropyl(methyl)amino)-2-((S)-2-oxo-3-((6-(trifluoromethyl)quinazolin-4-yl)amino)pyrrolidin-1-yl)cyclohexyl)amino)-5,11,18-trioxo-3,9,15-trioxa-6,12-diazaoctadecyl)-1-methyl-5-oxo-2-(pyridin-3-yl)pyrrolidine-3-carboxamide], for which the “pKd of Antibody” value in assay [1] turned out to be 9.076. In addition, in assay [2], the Emax at 100 µM was 61.3% and the midpoint of inhibition, the IC50, lay at 66.1 µM. Also, in assay [3], the EC50 was 1.26 nM.

One may read the IC50 as the midpoint of a concentration-inhibition curve. The low end stands for greater potency in that assay, the high end for weaker potency in that assay.
